Laboratory results reported in PubChem BioAssay AID256 (DTP/NCI, 2004).
“And” between values parts separate entries of the source, which are not always exact repeats. Equal values may be shown once. Inconclusive results and toxic doses are left out. The calls were made as follows: active = survival T/C of 150% or more; inactive = T/C below 125% in these data.

Test system: CD2F1 mice, L1210 leukemia ip, survival T/C
Assay: NCI In Vivo Anticancer Drug Screen. Data for tumor model L1210 Leukemia (intraperitoneal) in CD2F1 (CDF1) mice
Conditions: higher = longer survival
Summary of the method: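 Ratio T/C, where T is the treated-group value and C the vehicle-dosed control value, from mice implanted with a transplantable tumor.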

[1] = endpoint: mean survival time, dose: 100.0 mg/kg/injection, schedule: Q01DX009 (ip), vehicle: saline with Tween-80
[2] = endpoint: mean survival time, dose: 200.0 mg/kg/injection, schedule: Q01DX009 (ip), vehicle: saline with Tween-80
[3] = endpoint: mean survival time, dose: 400.0 mg/kg/injection, schedule: Q01DX009 (ip), vehicle: saline with Tween-80
[4] = endpoint: mean survival time, dose: 100.0 mg/kg/injection, schedule: Q04DX003 (ip), vehicle: saline with Tween-80
[5] = endpoint: mean survival time, dose: 200.0 mg/kg/injection, schedule: Q04DX003 (ip), vehicle: saline with Tween-80
[6] = endpoint: mean survival time, dose: 400.0 mg/kg/injection, schedule: Q04DX003 (ip), vehicle: saline with Tween-80
[7] = endpoint: median survival time, dose: 3.12 mg/kg/injection, schedule: Q04DX003 (ip), vehicle: saline
[8] = endpoint: median survival time, dose: 200.0 mg/kg/injection, schedule: Q04DX003 (ip), vehicle: saline
[9] = endpoint: mean survival time, dose: 25.0 mg/kg/injection, schedule: Q01DX009 (ip), vehicle: saline with Tween-80
[10] = endpoint: mean survival time, dose: 25.0 mg/kg/injection, schedule: Q04DX003 (ip), vehicle: saline with Tween-80
[11] = endpoint: mean survival time, dose: 50.0 mg/kg/injection, schedule: Q01DX009 (ip), vehicle: saline with Tween-80
[12] = endpoint: mean survival time, dose: 50.0 mg/kg/injection, schedule: Q04DX003 (ip), vehicle: saline with Tween-80
[13] = endpoint: mean survival time, dose: 12.5 mg/kg/injection, schedule: Q04DX003 (ip), vehicle: saline with Tween-80
[14] = endpoint: mean survival time, dose: 100.0 mg/kg/injection, schedule: Q01DX001 (ip), vehicle: saline with Tween-80
[15] = endpoint: mean survival time, dose: 200.0 mg/kg/injection, schedule: Q01DX001 (ip), vehicle: saline with Tween-80
[16] = endpoint: mean survival time, dose: 12.5 mg/kg/injection, schedule: Q01DX005 (ip), vehicle: water
[17] = endpoint: mean survival time, dose: 25.0 mg/kg/injection, schedule: Q01DX005 (ip), vehicle: water

Measured: T/C

Clc1cccc(Cl)c1C(Cl)Cl
inactive: [1] 98 % of control | [2] 98 % of control | [3] 98 % of control

O=C(c1ccccc1)C(C(c1ccccc1)N1CCOCC1)N1CCOCC1 (centres undefined)
inactive: [4] 90 % of control | [2] 96 % of control | [5] 92 % of control | [3] 93 % of control | [6] 97 % of control

CC(=O)C(C[CH2][Hg][Cl])C(C)=O
inactive: endpoint: mean survival time, dose: 75.0 mg/kg/injection, schedule: Q01DX001 (ip), vehicle: other 92 % of control

CN(C)c1ccc(N=Nc2ccc(S(=O)(=O)O)cc2)cc1.CN(C)c1ccc(N=Nc2ccc(S(=O)(=O)O)cc2)cc1.[NH-]C1CCCCC1[NH-].[Pt+2]
inactive: [7] 121 % of control and 107 % of control | endpoint: median survival time, dose: 6.25 mg/kg/injection, schedule: Q04DX003 (ip), vehicle: saline 109 % of control | endpoint: median survival time, dose: 100.0 mg/kg/injection, schedule: Q04DX003 (ip), vehicle: saline 105 % of control | [8] 116 % of control

CC(C)N1CCSC1=S
inactive: endpoint: mean survival time, dose: 25.0 mg/kg/injection, schedule: Q01DX009 (ip), vehicle: saline sonified 101 % of control | endpoint: mean survival time, dose: 50.0 mg/kg/injection, schedule: Q01DX009 (ip), vehicle: saline sonified 98 % of control | endpoint: mean survival time, dose: 100.0 mg/kg/injection, schedule: Q01DX009 (ip), vehicle: saline sonified 106 % of control | [4] 100 % of control | endpoint: mean survival time, dose: 200.0 mg/kg/injection, schedule: Q01DX009 (ip), vehicle: saline sonified 88 % of control | [5] 99 % of control | [6] 97 % of control

Nc1c(Br)cc2c(c1Br)Cc1cc(Cl)ccc1-2
inactive: [9] 107 % of control | [10] 111 % of control | [11] 103 % of control | [12] 103 % of control | [1] 102 % of control | [4] 105 % of control | [5] 100 % of control | [6] 86 % of control

[Cl][Pt+2][Cl].[NH-]N1CCN([NH-])CC1
inactive: [13] 105 % of control | [10] 90 % of control | [12] 98 % of control | [4] 94 % of control | [5] 102 % of control

CCCCCC(O)CCCCC
inactive: [4] 98 % of control | [5] 94 % of control | [6] 98 % of control

CCOc1cc(/C=N/NC(=O)C[n+]2ccccc2)ccc1O
inactive: [9] 99 % of control | [11] 103 % of control | [1] 99 % of control

COC1OCCC(C)O1 (centres undefined)
inactive: endpoint: mean survival time, dose: 100.0 mg/kg/injection, schedule: Q04DX002 (ip), vehicle: saline 104 % of control | endpoint: mean survival time, dose: 200.0 mg/kg/injection, schedule: Q04DX002 (ip), vehicle: saline 104 % of control | endpoint: mean survival time, dose: 400.0 mg/kg/injection, schedule: Q04DX002 (ip), vehicle: saline 107 % of control

CC(=O)Nc1ccncn1
inactive: endpoint: mean survival time, dose: 25.0 mg/kg/injection, schedule: Q04DX002 (ip), vehicle: saline with Tween-80 97 % of control | endpoint: mean survival time, dose: 50.0 mg/kg/injection, schedule: Q04DX002 (ip), vehicle: saline with Tween-80 100 % of control

OC1(c2ccccc2)c2cscc2C(O)(c2ccccc2)c2c(Cl)sc(Cl)c21 (centres undefined)
inactive: endpoint: mean survival time, dose: 6.25 mg/kg/injection, schedule: Q01DX001 (ip), vehicle: saline with Tween-80 100 % of control | endpoint: mean survival time, dose: 12.5 mg/kg/injection, schedule: Q01DX001 (ip), vehicle: saline with Tween-80 95 % of control | endpoint: mean survival time, dose: 25.0 mg/kg/injection, schedule: Q01DX001 (ip), vehicle: saline with Tween-80 88 % of control

O=C(O)C(=O)O.O=C(O)C(=O)O.O=C(O)C(=O)O.[Co]
inactive: endpoint: mean survival time, dose: 50.0 mg/kg/injection, schedule: Q04DX002 (ip), vehicle: saline 93 % of control

O=C(O)CC(=O)O.[NH-]CC(O)CN(Cc1ccccc1)CC(O)CN.[Pt+2] (centres undefined)
inactive: endpoint: median survival time, dose: 2.5 mg/kg/injection, schedule: Q04DX003 (ip), vehicle: water 102 % of control | endpoint: median survival time, dose: 5.0 mg/kg/injection, schedule: Q04DX003 (ip), vehicle: water 101 % of control | endpoint: median survival time, dose: 10.0 mg/kg/injection, schedule: Q04DX003 (ip), vehicle: water 108 % of control | endpoint: median survival time, dose: 12.5 mg/kg/injection, schedule: Q04DX003 (ip), vehicle: water 104 % of control | endpoint: median survival time, dose: 20.0 mg/kg/injection, schedule: Q04DX003 (ip), vehicle: water 111 % of control | endpoint: median survival time, dose: 25.0 mg/kg/injection, schedule: Q04DX003 (ip), vehicle: water 102 % of control | endpoint: median survival time, dose: 50.0 mg/kg/injection, schedule: Q04DX003 (ip), vehicle: water 104 % of control | endpoint: median survival time, dose: 100.0 mg/kg/injection, schedule: Q04DX003 (ip), vehicle: water 108 % of control

ClI(Cl)c1ccccc1
inactive: [1] 98 % of control

COc1ccc2ccc[n+](C)c2c1
inactive: endpoint: mean survival time, dose: 6.25 mg/kg/injection, schedule: Q01DX009 (ip), vehicle: saline 94 % of control | endpoint: mean survival time, dose: 6.25 mg/kg/injection, schedule: Q04DX003 (ip), vehicle: saline with Tween-80 98 % of control | endpoint: mean survival time, dose: 12.5 mg/kg/injection, schedule: Q01DX009 (ip), vehicle: saline 104 % of control | [13] 101 % of control | endpoint: mean survival time, dose: 25.0 mg/kg/injection, schedule: Q01DX009 (ip), vehicle: saline 107 % of control | [10] 101 % of control

CC1=CCc2c(c(NS(=O)(=O)c3ccccc3)c3ccccc3c2NS(=O)(=O)c2ccccc2)C1
inactive: endpoint: mean survival time, dose: 37.5 mg/kg/injection, schedule: Q01DX001 (ip), vehicle: saline sonified 95 % of control | endpoint: mean survival time, dose: 75.0 mg/kg/injection, schedule: Q01DX001 (ip), vehicle: saline sonified 96 % of control | endpoint: mean survival time, dose: 150.0 mg/kg/injection, schedule: Q01DX001 (ip), vehicle: saline sonified 89 % of control

C[n+]1c2ccccc2c(Cl)c2ccccc21
inactive: [14] 104 % of control | [15] 109 % of control

C1C2CC3CC3CC12 (centres undefined)
inactive: [4] 93 % of control

Cc1cc(C)c(S(=O)(=O)F)cc1C(=O)O
inactive: [14] 101 % of control | [1] 96 % of control and 100 % of control | endpoint: mean survival time, dose: 100.0 mg/kg/injection, schedule: Q04DX002 (ip), vehicle: saline with Tween-80 92 % of control and 104 % of control | [4] 107 % of control | [15] 95 % of control | [2] 93 % of control and 94 % of control | endpoint: mean survival time, dose: 200.0 mg/kg/injection, schedule: Q04DX002 (ip), vehicle: saline with Tween-80 96 % of control and 104 % of control | [5] 102 % of control | [3] 96 % of control | endpoint: mean survival time, dose: 400.0 mg/kg/injection, schedule: Q04DX002 (ip), vehicle: saline with Tween-80 94 % of control and 102 % of control | [6] 100 % of control

CCCCC(CC)CNC1=C(Cl)C(=O)c2ccccc2C1=O (centres undefined)
inactive: [10] 98 % of control | [12] 106 % of control | [4] 95 % of control

O=C(O)/C(O)=C(/O)C(=O)O.[NH-]C1CCCCC1[NH-].[Pt+2]
inactive: [7] 97 % of control
active: endpoint: median survival time, dose: 50.0 mg/kg/injection, schedule: Q04DX003 (ip), vehicle: saline 337 % of control | [8] 184 % of control
113 % of control and 202 % of control: endpoint: median survival time, dose: 25.0 mg/kg/injection, schedule: Q04DX003 (ip), vehicle: saline

C#CC(C)OCC1CNC(=S)O1 (centres undefined)
inactive: endpoint: mean survival time, dose: 25.0 mg/kg/injection, schedule: Q01DX009 (ip), vehicle: Klucel (hydroxypropylcellulose) (HPC) 96 % of control | endpoint: mean survival time, dose: 50.0 mg/kg/injection, schedule: Q01DX009 (ip), vehicle: Klucel (hydroxypropylcellulose) (HPC) 92 % of control | endpoint: mean survival time, dose: 100.0 mg/kg/injection, schedule: Q01DX009 (ip), vehicle: Klucel (hydroxypropylcellulose) (HPC) 94 % of control | endpoint: mean survival time, dose: 200.0 mg/kg/injection, schedule: Q01DX009 (ip), vehicle: Klucel (hydroxypropylcellulose) (HPC) 97 % of control | endpoint: mean survival time, dose: 400.0 mg/kg/injection, schedule: Q01DX009 (ip), vehicle: Klucel (hydroxypropylcellulose) (HPC) 91 % of control

CCOc1ccc(-n2c(-c3ccc(Br)cc3)csc2=NC(=O)c2ccccc2F)cc1
inactive: [9] 92 % of control and 100 % of control | [10] 88 % of control | [11] 88 % of control | [12] 94 % of control | [14] 93 % of control | [4] 92 % of control and 95 % of control | [15] 91 % of control | [2] 88 % of control and 90 % of control | endpoint: mean survival time, dose: 400.0 mg/kg/injection, schedule: Q01DX001 (ip), vehicle: saline with Tween-80 95 % of control | [3] 90 % of control

O=C1C=C(C2OC(CI)C(O)C2O)C(=O)N1 (centres undefined)
inactive: [16] 109 % of control | [17] 107 % of control

Nc1ncnc2c1c1c(N)[nH]c(=O)nc1n2C1OC(CO)C(O)C1O (centres undefined)
inactive: [16] 106 % of control | [17] 104 % of control | endpoint: mean survival time, dose: 50.0 mg/kg/injection, schedule: Q01DX005 (ip), vehicle: water 97 % of control | endpoint: mean survival time, dose: 100.0 mg/kg/injection, schedule: Q01DX005 (ip), vehicle: water 104 % of control | endpoint: mean survival time, dose: 200.0 mg/kg/injection, schedule: Q01DX005 (ip), vehicle: water 121 % of control
